According to US8648066B2 (Exelixis, Inc., priority 2009, dated 2014):

Key:
[1] = target: mTOR/GbL/Raptor (mTORC1) (Homo sapiens, UniProt P42345); assay: mTOR/GbL/Raptor (mTORC1) ELISA assay; format: biochemical; details: phosphorylation of 4E-BP1; 0.2 nM mTORC1, 10 μM ATP; read-out: IC50 in this assay (mTORC1 ELISA)
In short: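 Human mTORC1 (0.2 nM) phosphorylated 50 nM His-tagged 4E-BP1 with 10 µM ATP in HEPES pH 7.2 containing 10 mM MnCl2, 120 min at ambient temperature. Substrate was captured on Ni-chelate plates; phospho-4E-BP1 was detected by primary antibody and HRP secondary with luminescence.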

[2] = target: PI3Kα (Homo sapiens, UniProt P42336); assay: PI3K biochemical assay (luciferase-luciferin ATP consumption); details: 1.5 nM enzyme, 1 μM ATP, 10 μM PIP2; read-out: IC50 for PI3Kα in this assay
Description: PI3Kα activity is measured as the percent of ATP consumed following the kinase reaction using luciferase-luciferin-coupled chemiluminescence. Reactions were conducted in 384-well white, medium binding microtiter plates (Greiner). Kinase reactions were initiated by combining test compounds, ATP, substrate (PIP2), and kinase in a 20 μL volume in a buffer solution. The standard PI3Kalpha assay buffer is composed 50 mM Tris, pH 7.5, 1 mM EGTA, 10 mM MgCl2, 1 mM DTT and 0.03% CHAPS. The standard assay concentrations for enzyme, ATP, and substrate are 1.5 nM, 1 μM, and 10 μM, respectively. The reaction mixture was incubated at ambient temperature for approximately 2 h. Following the kinase reaction, a 10 μL aliquot of luciferase-luciferin mix (Promega Kinase-Glo) was added and the chemiluminescence signal measured using a Victor2 plate reader (Perkin Elmer). Total ATP consumption was limited to 40-60% and IC50 values of control compounds correlate well with literature references. Substituting PI3Kα with PI3Kβ, PI3Kγ, or PI3Kδ, the inhibitory activity of the compounds for the other isoforms of I3K were measured.

PI3Kα, sequence (P42336 whole entry, species assumed): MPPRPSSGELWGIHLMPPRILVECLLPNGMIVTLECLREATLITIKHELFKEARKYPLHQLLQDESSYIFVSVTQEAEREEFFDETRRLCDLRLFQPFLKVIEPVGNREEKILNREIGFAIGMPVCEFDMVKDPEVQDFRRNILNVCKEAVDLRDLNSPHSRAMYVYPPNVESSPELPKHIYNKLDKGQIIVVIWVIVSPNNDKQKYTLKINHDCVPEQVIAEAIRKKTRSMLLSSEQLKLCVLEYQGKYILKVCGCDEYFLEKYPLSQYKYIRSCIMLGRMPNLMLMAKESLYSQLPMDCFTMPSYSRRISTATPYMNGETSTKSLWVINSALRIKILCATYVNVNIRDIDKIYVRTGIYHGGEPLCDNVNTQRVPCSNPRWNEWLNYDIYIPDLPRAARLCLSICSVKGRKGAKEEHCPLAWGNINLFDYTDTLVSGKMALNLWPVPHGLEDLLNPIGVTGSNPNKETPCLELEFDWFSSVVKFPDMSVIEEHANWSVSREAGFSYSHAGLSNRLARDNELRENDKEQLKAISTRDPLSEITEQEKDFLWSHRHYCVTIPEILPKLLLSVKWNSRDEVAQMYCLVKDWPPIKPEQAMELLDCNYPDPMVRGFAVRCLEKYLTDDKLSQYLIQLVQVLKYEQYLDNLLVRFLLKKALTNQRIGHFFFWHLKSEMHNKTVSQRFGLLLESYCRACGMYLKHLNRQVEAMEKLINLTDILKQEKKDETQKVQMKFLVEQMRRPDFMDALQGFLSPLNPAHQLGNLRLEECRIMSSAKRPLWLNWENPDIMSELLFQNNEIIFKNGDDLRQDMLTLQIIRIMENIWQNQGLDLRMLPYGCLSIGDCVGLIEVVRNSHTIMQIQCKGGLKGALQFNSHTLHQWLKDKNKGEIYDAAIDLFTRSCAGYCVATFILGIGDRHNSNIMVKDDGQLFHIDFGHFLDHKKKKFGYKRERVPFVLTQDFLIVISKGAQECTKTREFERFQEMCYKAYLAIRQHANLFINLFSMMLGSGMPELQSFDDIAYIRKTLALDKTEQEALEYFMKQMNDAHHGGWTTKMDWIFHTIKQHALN
PI3Kα, sequence (P27986 whole entry partner, species assumed): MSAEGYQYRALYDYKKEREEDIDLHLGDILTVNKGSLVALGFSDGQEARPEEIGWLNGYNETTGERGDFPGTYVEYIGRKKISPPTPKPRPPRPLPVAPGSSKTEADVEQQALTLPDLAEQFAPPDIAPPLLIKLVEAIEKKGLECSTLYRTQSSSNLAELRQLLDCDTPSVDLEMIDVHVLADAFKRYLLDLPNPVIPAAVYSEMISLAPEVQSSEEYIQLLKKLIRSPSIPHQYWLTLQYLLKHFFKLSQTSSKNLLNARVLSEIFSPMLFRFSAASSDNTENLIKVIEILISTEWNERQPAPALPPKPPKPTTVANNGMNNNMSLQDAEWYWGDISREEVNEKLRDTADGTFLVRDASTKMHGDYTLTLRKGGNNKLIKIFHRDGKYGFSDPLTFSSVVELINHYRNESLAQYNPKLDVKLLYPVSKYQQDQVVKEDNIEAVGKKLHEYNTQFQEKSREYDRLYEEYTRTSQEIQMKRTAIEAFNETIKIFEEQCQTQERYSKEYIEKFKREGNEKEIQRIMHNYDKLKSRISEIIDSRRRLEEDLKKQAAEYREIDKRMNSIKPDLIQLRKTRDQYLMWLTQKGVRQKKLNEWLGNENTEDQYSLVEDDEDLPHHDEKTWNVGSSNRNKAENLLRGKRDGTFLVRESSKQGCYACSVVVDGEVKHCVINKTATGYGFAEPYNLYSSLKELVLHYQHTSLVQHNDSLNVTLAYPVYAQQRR

In the case of `CCNc1nc2ccc(-c3ccc4c(c3)CN(c3nc(C)nc5cc(OCC)ccc35)CCO4)cc2[nH]1` [Example 288, N-ethyl-6-{4-[7-(ethyloxy)-2-methylquinazolin-4-yl]-2,3,4,5-tetrahydro-1,4-benzoxazepin-7-yl}-1H-benzimidazol-2-amine], the IC50 [1] is reported as at least 2 µM and the IC50 [2] is reported as 1 to 2 µM.
`OCc1ncc(-c2ccc(-c3ccc4c(c3)CN(c3ncnc5cccnc35)CCO4)cc2)[nH]1` [Example 212, {5-[4-(4-pyrido[3,2-d]pyrimidin-4-yl-2,3,4,5-tetrahydro-1,4-benzoxazepin-7-yl)phenyl]-1H-imidazol-2-yl}methanol] gave an IC50 [1] of 0.25 to 1 µM and an IC50 [2] of at least 2 µM.
For `c1ccc2ncc(-c3ccc4c(c3)CN(c3ccnc5ccccc35)CCO4)cc2c1` [Example 205, 7-quinolin-3-yl-4-quinolin-4-yl-2,3,4,5-tetrahydro-1,4-benzoxazepine], the IC50 [1] was 1 to 2 µM and the IC50 [2] was 1 to 2 µM.
`COc1cc(-c2ccc3c(c2)CN(c2nc(CN(C)C)nc4c2CC(C)(C)CC4)CCO3)ccc1Cl` [Example 326] gave an IC50 [1] of 0.25 to 1 µM and an IC50 [2] of 1 to 2 µM.
Work on `CNC(=O)c1cccc(-c2ccc3c(c2)CN(c2nc(C)nc4cc(OC)ccc24)CCO3)c1` [Example 644, N-methyl-3-{4-[2-methyl-7-(methyloxy)quinazolin-4-yl]-2,3,4,5-tetrahydro-1,4-benzoxazepin-7-yl}benzamide] yielded an IC50 [2] of at least 2 µM.
With `CCNC(=O)c1cccc(-c2ccc3c(c2)CN(c2nc(C)nc4cc(OC)ccc24)CCO3)c1` [Example 638, N-ethyl-3-{4-[2-methyl-7-(methyloxy)quinazolin-4-yl]-2,3,4,5-tetrahydro-1,4-benzoxazepin-7-yl}benzamide] the IC50 [1] was at least 2 µM and the IC50 [2] was at least 2 µM.
`Cc1nc2ccc(-c3ccc4c(c3)CN(c3ncnc5c3CN(C3CC3)C5)CCO4)cc2[nH]1` [Example 87, 4-(6-cyclopropyl-6,7-dihydro-5H-pyrrolo[3,4-d]pyrimidin-4-yl)-7-(2-methyl-1H-benzimidazol-6-yl)-2,3,4,5-tetrahydro-1,4-benzoxazepine] was tested, and the IC50 [1] was 0.25 to 1 µM and the IC50 [2] was at least 2 µM.
`Cn1ncc2cc(-c3ccc4c(c3)CN(c3ccnc5ccccc35)CCO4)ccc21` [Example 139, 7-(1-methyl-1H-indazol-5-yl)-4-quinolin-4-yl-2,3,4,5-tetrahydro-1,4-benzoxazepine] gave an IC50 [2] of 1 to 2 µM.
For `Cc1nc2cc(-c3ccc4c(c3)CN(c3ccnc5ccccc35)CCO4)ccc2s1` [Example 128, 7-(2-methyl-1,3-benzothiazol-5-yl)-4-quinolin-4-yl-2,3,4,5-tetrahydro-1,4-benzoxazepine], the IC50 [1] was at least 2 µM and the IC50 [2] was at least 2 µM.
In the case of `CC[C@H]1CCc2c(nc(C)nc2N2CCOc3ccc(-c4cnc5nc([C@H](C)NC(=O)OCc6ccccc6)[nH]c5c4)cc3C2)C1` [Example 646, phenylmethyl [(1S)-1-(6-{4-[(7S)-7-ethyl-2-methyl-5,6,7,8-tetrahydroquinazolin-4-yl]-2,3,4,5-tetrahydro-1,4-benzoxazepin-7-yl}-1H-imidazo[4,5-b]pyridin-2-yl)ethyl]carbamate], the IC50 [2] is reported as 1 to 2 µM.
`CCn1cnc2cc(-c3ccc4c(c3)CN(c3ccnc5ccccc35)CCO4)ccc21` [Example 127, 7-(1-ethyl-1H-benzimidazol-5-yl)-4-quinolin-4-yl-2,3,4,5-tetrahydro-1,4-benzoxazepine] was tested, and the IC50 [1] was 0.25 to 1 µM and the IC50 [2] was at least 2 µM.
Work on `CCn1ccc2cc(-c3ccc4c(c3)CN(c3ccnc5ccccc35)CCO4)cnc21` [Example 223, 7-(1-ethyl-1H-pyrrolo[2,3-b]pyridin-5-yl)-4-quinolin-4-yl-2,3,4,5-tetrahydro-1,4-benzoxazepine] yielded an IC50 [1] of at least 2 µM and an IC50 [2] of at least 2 µM.
With `COCCOC(=O)Nc1nc2ccc(-c3ccc4c(c3)CN(c3ccnc5ccccc35)CCO4)cc2[nH]1` [Example 118, 2-(methyloxy)ethyl [6-(4-quinolin-4-yl-2,3,4,5-tetrahydro-1,4-benzoxazepin-7-yl)-1H-benzimidazol-2-yl]carbamate] the IC50 [2] was 1 to 2 µM.
